According to the NIST ThermoML archive (doi:10.1021/je049576k):
± gives the expanded uncertainty stated by the source.

Conditions: 101.33 kPa, Liquid

| mass density (298.15 K) | viscosity (298.15 K) | mass density (313.15 K) | viscosity (313.15 K) | Structure (SMILES) |
| --- | --- | --- | --- | --- |
| 1058.62 ± 0.58 kg/m3 | 0.5886 ± 0.0084 mPa·s | 1039.97 ± 0.56 kg/m3 | 0.4985 ± 0.0074 mPa·s | C1COCO1 [1,3-dioxolane] |
| 802.2 ± 0.6 kg/m3 | 3.043 ± 0.037 mPa·s | 789.59 ± 0.61 kg/m3 | 1.791 ± 0.023 mPa·s | CCC(C)O (configuration not stated) [butan-2-ol] |
| 655.07 ± 0.75 kg/m3 | 0.2951 ± 0.005 mPa·s | 641.27 ± 0.77 kg/m3 | 0.2552 ± 0.0045 mPa·s | CCCCCC [hexane] |
